Measurements reported in patent publication US20250388592A1 (REMYND N.V., priority 2022, published 2025).

Experiments:
M17_3TAU(P301L) cells = test: TAU-induced cytotoxicity (LDH) in the neuroblastoma tauopathy model; format: cell-based; conditions: Homo sapiens, 168 h, inhibition of TAU-induced toxicity, 7 days retinoic acid differentiation, LDH readout
In short: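 Stably transfected BE-M17 cells expressing human TAU-P301L, seeded in serum-free detection medium, then differentiated with 2.5 μM RA (added in equal volume) for 7 days at 37° C/5% CO2 to induce TAU aggregation. Cytotoxicity = supernatant LDH increase over total LDH; EC50 from dose-dependent inhibition curves.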

[1] = tested on: Tau-P301S transgenic mice; test: Hippocampal long-term potentiation (CA3-CA1 fEPSP) in human Tau transgenic mice model of Alzheimer disease; format: in vivo, mouse; conditions: 41-60 minute post-induction interval
Source text: The Tau-P301S line of mice was transgenic for the 383 aa isoform of human tau with the P301S mutation (Allen et al., 2002). In these mice, a clinical mutant of the human Tau (P301S) was expressed under control of the murine Thy1 promoter (neuron-specific expression) in C57Bl/6JxCBA/ca background. The homozygous hTauP301S-Tg model used consisted of the progeny from a cross between two homozygous hTauP301S-Tg parental mice in C57Bl/6JxCBA/ca background, bred in SPF breeding conditions.
Six mice (3,5 months of age) per group were treated orally once daily for 7 days with vehicle or 0.4, 2 or 10 mg/kg cpd B061, or twice daily for 7 days with vehicle or 25 mg/kg cpd B112, formulated in labrasol/capryol (70/30% W/V). A wild type vehicle group was included as well. The mice in study were sacrificed after a minimum of 7 days of acclimatization and 7 days of dosing. LTP measurements occurred between 90 and 120 minutes after excision of the brain.
Mice were anaesthetized with isoflurane and then decapitated. Heads were immediately immersed in ice-cold freshly prepared artificial CSF (cerebrospinal fluid) (aCSF) for at least 2 min before brain extraction. Acute slices (400 μm thick) were prepared with a vibratome (VT 1000S; Leica Microsystems, Bannockburn, IL) in ice-cold gassed aCSF. Sections were incubated in aCSF at 34° C. for 20 min and then kept at room temperature for at least 1 h before recording. aCSF was composed of the following (in mM): 119 NaCl, 11 d-glucose, 1.3 MgCl2·6H2O, 1.3 NaH2PO4, 2.5 KCl, 2.5 CaCl2, 26 NaHCO3, gassed with O2/CO2 (95/5%) at least 20 min before use and throughout the experiment.
Recordings were performed in a submerged chamber continuously flowed with aCSF at 2 ml/min. Extracellular field excitatory postsynaptic potentials (fEPSPs) were recorded in the CA1 stratum radiatum using a glass micropipette filled with aCSF. fEPSPs were evoked by the electrical

With O=C(CC1CCC(F)(F)CC1)N1CC2(CN(Cc3ncccc3C(F)(F)F)C2)C1 [Cpd B112] the EC50 (M17_3TAU(P301L) cells) was 12.2 nM and the “Average fEPSP slope (% of baseline)” value ([1]; 25 mpk orally twice daily for 7 days) was 144.4 % of baseline.

For O=C(Cc1ccc(Cl)cc1)N1CC2(CN(Cc3ccc(F)cc3)C2)C1 [Cpd B061, 2-(4-chlorophenyl)-1-(6-(4-fluorobenzyl)-2,6-diazaspiro[3.3]heptan-2-yl)ethanone], the EC50 (M17_3TAU(P301L) cells) was 2.46 nM, the “Average fEPSP slope (% of baseline)” value ([1]; 0.4 mpk orally once daily for 7 days) was 129.0 % of baseline and the “Average fEPSP slope (% of baseline)” value ([1]; 2 mpk orally once daily for 7 days) was 152.2 % of baseline. For the same molecule, the “Average fEPSP slope (% of baseline)” value ([1]; 10 mpk orally once daily for 7 days) was 169.3 % of baseline.
